# Data reported in patent US6541463B1, “Inhibitors of type 5 and type 3 17β-hydroxysteroid dehydrogenase and methods for their use” (Endorecherche, Inc., priority 1998, dated 2003).
# Assays:
# Assay type in all cases: biochemical
# [1] = target: T1, human type 3 17β-hydroxysteroid dehydrogenase (Homo sapiens, UniProt P37058); assay: Enzymatic assay for type 3 17β-HSD; settings: for IC50: Table 4′, read-out: Inhibition Type 3 17β-HSD Activity IC50
# T1 construct: expressed in transfected cells; host or cells: 293 cells, transient transfection; microsomal fraction (100 000×g pellet)
# T1 sequence (P37058 1-310): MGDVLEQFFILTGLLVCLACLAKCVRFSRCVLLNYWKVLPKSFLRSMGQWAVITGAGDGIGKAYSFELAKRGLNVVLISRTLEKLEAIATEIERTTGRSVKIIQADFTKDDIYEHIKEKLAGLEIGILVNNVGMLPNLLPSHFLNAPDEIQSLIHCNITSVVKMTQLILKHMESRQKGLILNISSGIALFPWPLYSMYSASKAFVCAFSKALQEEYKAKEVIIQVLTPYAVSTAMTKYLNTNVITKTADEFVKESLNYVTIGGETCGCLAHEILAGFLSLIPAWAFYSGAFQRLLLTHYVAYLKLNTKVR
# Excerpt: Enzymatic assay for types 1, 2, and 3 17β-HSD and types 1 and 3 3α-HSD”. Lower numbers of IC50 are desirable. Blank means that a determination was not done. The % of inhibition at the concentration of 3.10^−6M determined in preliminary screening test is reported in square braquets.
# (§1) Enzyme sources. 293 cells transiently transfected with expression vectors encoding types 1, 2 and 3 17β-HSD (Luu-The et al., J. Steroid Biochem. Molec. Biol., 55: 581-587, 1995), types 1 and 2 5α-reductase (Luu-The et al., J. Invest. Dermatol., 102: 221-226, 1994) and types 1 and 3 3α-HSD (Dufort et al. Biochem. Biophys. Res. Commun. 228: 474-479, 1996), using the calcium phosphate procedure (Kingston et al., In: Current Protocols in Molecular Biology. Edited by E. M. Ausbel, R. Brent, R. E. Kingston, D. D. Moore, J. G. Seidman, J. A. Smith, K. Struhl. John Wiley & Sons, New York, pp. 9.1.1-9.1.9, 1991; Luu-The et al., J. Invest. Dermatol., 102: 221-226, 1994). For assays using cell subfractions, cells were sonicated in 50 mM sodium phosphate buffer (pH 7.4), containing 20% glycerol and 1 mM EDTA and centrifuged at 10 000×g for 30 min before centrifugation for 100 000×g for 1 h to separate the mitochondrial and microsomal fractions, respectively. The cytosol fractions (100 000×g supernatant) was used to determine type 1 activity while the microsomal fraction (pellet at 100 000×g) was used for measurement of types 2 and 3 17β-HSD activities.
# (§2) Incubation. The enzymatic reaction was carried out at 37° C. in 1 ml of 50 mM sodium phosphate buffer, pH 7.4, containing 20% glycerol, 1 mM EDTA, and 2 mM cofactors (NADPH or AND^+) for 1 h in the presence of 0.1 μM ^14C-labeled substrate: estrone and 4-dione for types 1 and […] 17β-HSD, respectively, testosterone for type 2 17β-HSD as well as types 1 and 2 5α-reductases, DHT for types 1 and 3 3α-HSD activities, and the indicated concentration of inhibitor.
# (§3) Extraction of metabolites, migration on TLC and quantification were as described above for the assay of type 5 17β-HSD.
# [2] = target: T2, human type 1 3α-hydroxysteroid dehydrogenase (Homo sapiens, UniProt P17516); assay: Enzymatic assay for type 1 3α-HSD; settings: Table 4′; for IC50: read-out: Inhibition Type 1 3α-HSD Activity IC50
# T2 sequence (P17516 1-323): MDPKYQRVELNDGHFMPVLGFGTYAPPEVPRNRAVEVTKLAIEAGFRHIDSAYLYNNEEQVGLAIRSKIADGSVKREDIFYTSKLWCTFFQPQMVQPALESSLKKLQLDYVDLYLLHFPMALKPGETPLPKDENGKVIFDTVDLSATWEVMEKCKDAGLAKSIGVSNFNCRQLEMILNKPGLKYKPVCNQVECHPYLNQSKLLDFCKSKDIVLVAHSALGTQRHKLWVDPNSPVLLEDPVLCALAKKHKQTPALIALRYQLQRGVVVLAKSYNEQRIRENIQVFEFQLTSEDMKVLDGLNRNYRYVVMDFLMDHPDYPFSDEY
# Experimental: The manner in which IC50 was determined is described in “Efficacy of Preferred Inhibitors: VI. Enzymatic assay for types 1, 2, and 3 17β-HSD and types 1 and 3 3α-HSD”. […] numbers of IC50 are desirable. Blank means that a determination was not done. […]
# as §1, §2, §3
# [3] = target: T3, human type 3 3α-hydroxysteroid dehydrogenase (Homo sapiens, UniProt P52895); assay: Enzymatic assay for type 3 3α-HSD; settings: Table 4′; read-out: Inhibition Type 3 3α-HSD Activity IC50
# T3 construct: expressed in transfected cells; host or cells: 293 cells, transient transfection
# T3 sequence (P52895 1-323): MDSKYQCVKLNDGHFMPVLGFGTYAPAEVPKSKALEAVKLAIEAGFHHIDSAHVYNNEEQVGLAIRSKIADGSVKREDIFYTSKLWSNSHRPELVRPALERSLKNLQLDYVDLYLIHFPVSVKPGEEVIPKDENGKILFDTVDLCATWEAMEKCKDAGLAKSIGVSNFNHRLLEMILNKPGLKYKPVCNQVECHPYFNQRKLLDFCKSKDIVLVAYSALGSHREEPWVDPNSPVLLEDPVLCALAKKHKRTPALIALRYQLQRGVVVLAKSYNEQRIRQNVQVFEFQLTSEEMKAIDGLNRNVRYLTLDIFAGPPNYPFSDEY
# Experimental: The manner in which IC50 was determined is described in “Efficacy of Preferred Inhibitors: VI. Enzymatic assay for types 1, 2, and 3 17β-HSD and types 1 and 3 3α-HSD”. […] numbers of IC50 are desirable. Blank means that a determination was not done. The % of inhibition at the concentration of 3.10^−6M determined in preliminary screening test is reported in square braquets.
# as §1, §2, §3
Structure (SMILES),IC50 [1] [µM],IC50 [2] [µM],IC50 [3] [µM],"Inhibition Type 1 3α-HSD Activity [% Inh. at 3 · 10^8M] ([2]; bracketed value, 3 · 10^−6 M)","inhibition at 3 µM ([1]; 3 · 10^−6 M, value in square brackets, read-out: Inhibition Type 3 17B-HSD Activity [% Inh. at 3 · 10^−6 M]) [%]"
CC1(C)CCC2(CCC3C4CCc5cc(OS(C)(=O)=O)ccc5C4CCC32C)OC1=O (stereo not shown) [EM-1365-CS],> 10,> 10,> 10,,
CC1(C)CC[C@@]2(CCC3C4CCc5cc(F)ccc5C4CC[C@@]32C)OC1=O (stereo partly shown) [EM-1157-CS],> 10,> 10,> 10,,
"CC1(C)CC[C@@]2(CCC3C4CCc5cc(C(=O)O)ccc5C4CC[C@@]32C)OC1=O (stereo partly drawn) [EM-1401, 3-Carboxy-1,3,5(10)-estratrien-17(R)-spiro-2′-(5′,5′-dimethyl-6′-oxo)tetrahydropyran]",> 10,,> 10,[76] %,
CC1(C)CC[C@@]2(CCC3C4CCc5cc(C(N)=O)ccc5C4CCC32C)OC1=O (stereo partly shown) [EM-1404],> 10,> 10,> 10,,
COCCOc1cc2c(cc1C#N)C1CC[C@@]3(C)C(CC[C@@]34CCC(C)(C)C(=O)O4)C1CC2 (stereo partly shown) [EM-1396],> 10,> 10,> 10,,
CCC[C@@H]1CC2C3C=CC4=CC(=O)CC[C@]4(C)C3CC[C@]2(C)C1=O (stereo partly shown) [EM-1097],,,,,82
"COCCOc1cc2c(cc1C(N)=O)C1CC[C@@]3(C)C(CC[C@@]34CCC(C)(C)C(=O)O4)C1CC2 (stereo partly drawn) [EM-1424, 2-Carbamoyl-3-(2″-methoxyethyloxy)-1,3,5(10)-estratrien 17(R)-spiro-2′-(5′,5′-dimethyl-6′-oxo)tetrahydropyran]",> 10,> 10,> 10,,
"COCCOc1cc2c(cc1C(=O)OC)C1CC[C@@]3(C)C(CC[C@@]34CCC(C)(C)C(=O)O4)C1CC2 (stereo partly drawn) [EM-1402-CS, 2-Carbomethoxy-3-(2″-methoxyethyloxy)-1,3,5(10)-estratrien 17(R)-spiro-2′-(5′,5′-dimethyl-6′-oxo)tetrahydropyran]",> 10,> 10,> 10,,
COc1ccc2c(c1)C(=O)CC1C2CC[C@@]2(C)C1CC[C@@]21CCC(C)(C)C(=O)O1 (stereo partly shown) [EM-1394],> 10,> 10,> 10,,
